Assay results as given in the supplement of paper PMC4862054.

Columns and labels:
Conditions in all cases: incubation time: 72 h
CAL-148 = assay: normalised response (% of control), CellTiter-Glo; higher = more viable cells (100 = DMSO, 0 = benzethonium chloride kill control)
In short: (§1)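 Values are normalised signals, each belonging to one concentration of the series. Breast cancer cells (20 µl suspension) were seeded into 384-well plates with compound at 5 concentrations in 10-fold steps over a compound-specific 10,000-fold range and incubated 72 h. Readouts were CellTox Green fluorescence (485/520 nm), then CellTiter-Glo luminescence after 10 min at room temperature, with each plate set to 0.1 % DMSO as 100 and a positive kill control as 0.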

HCC1599 = assay: as above
In short: as §1

DU-4475 = assay: as above
In short: as §1

CAL-120 = assay: as above
In short: as §1

BT-474 = assay: as above
In short: as §1

CAL-51 = assay: as above
In short: as §1

SK-BR-3 = assay: as above
In short: as §1

MDA-MB-468 = assay: as above
In short: as §1

MFM-223 = assay: as above
In short: as §1

BT-549 = assay: as above
In short: as §1

MDA-MB-436 = assay: as above
In short: as §1

MDA-MB-231 [1] = assay: as above
In short: as §1

CAL-85-1 = assay: as above
In short: as §1

MCF-10A = assay: as above
In short: as §1

MDA-MB-453 = assay: as above
In short: as §1

HDQ-P1 = assay: as above
In short: as §1

Hs578T [2] = assay: as above
In short: as §1

HCC1143 = assay: as above
In short: as §1

HCC1937 [3] = assay: as above
In short: as §1

MDA-MB-231 [4] = assay: drug sensitivity score (DSS), CellTox Green (DSS (AUC-based score)); higher = stronger drug effect (viability inhibition or cytotoxicity); extreme values may be limits of the assay
In short: (§2)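 Each compound occupied 5 concentrations in 10-fold steps over its own 10,000-fold range in 384-well plates, into which breast cancer cell lines were seeded as 20 µl suspension. Following 72 h of incubation, CellTox Green fluorescence (485/520 nm) was measured, and CellTiter-Glo luminescence was measured after 10 min at room temperature. Plates were individually normalised to 0.1 % DMSO and a positive kill control. From the area under the fitted dose-response curve, a drug sensitivity score was calculated.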

Hs578T [5] = assay: as above
In short: as §2

HCC1937 [6] = assay: as above
In short: as §2

| SMILES | normalised response (CAL-148) [%] | normalised response (HCC1599) [%] | normalised response (DU-4475) [%] | normalised response (CAL-120) [%] | normalised response (BT-474) [%] | normalised response (CAL-51) [%] | normalised response (SK-BR-3) [%] | normalised response (MDA-MB-468) [%] | normalised response (MFM-223) [%] | normalised response (BT-549) [%] | normalised response (MDA-MB-436) [%] | normalised response (MDA-MB-231 [1]) [%] | normalised response (CAL-85-1) [%] | normalised response (MCF-10A) [%] | normalised response (MDA-MB-453) [%] | normalised response (HDQ-P1) [%] | normalised response (Hs578T [2]) [%] | normalised response (HCC1143) [%] | normalised response (HCC1937 [3]) [%] | drug sensitivity score (MDA-MB-231 [4]) | drug sensitivity score (Hs578T [5]) | drug sensitivity score (HCC1937 [6]) |
| --- | --- | --- | --- | --- | --- | --- | --- | --- | --- | --- | --- | --- | --- | --- | --- | --- | --- | --- | --- | --- | --- | --- |
| CN1CC[C@H](c2c(O)cc(O)c3c(=O)cc(-c4ccccc4Cl)oc23)[C@H](O)C1 [Alvocidib] (1000 nM) | 26.1 | 17.2 | 10.1 | 35.2 | 20 | 9.5 | 2.44 | 8.32 | 14 | 5.76 | 14.2 | 3.01 | 8.63 | 11.2 | 28 | 19.8 | 10.1 | 17.1 | 29.1 |  |  |  |
| Nc1nc(Cl)nc2c1ncn2[C@H]1C[C@H](O)[C@@H](CO)O1 [Cladribine] (100 nM) | 97.8 | 112 | 101 | 94.5 | 97.1 | 90.1 | 111 | 93.8 | 101 | 77.7 | 104 | 93.3 | 104 | 107 | 106 | 97.5 | 100 | 100 | 90.3 |  |  |  |
| Nc1ccn([C@@H]2O[C@H](CO)[C@@H](O)[C@@H]2O)c(=O)n1 [Cytarabine] (1000 nM) | 55.5 | 93.4 | 77.8 | 88 | 90.6 | 39.7 | 46.7 | 74.3 | 101 | 61.9 | 46.4 | 86.8 | 94.5 | 104 | 105 | 92 | 81.6 | 80.6 | 85.2 |  |  |  |
| Cc1c2oc3c(C)ccc(C(=O)N[C@@H]4C(=O)N[C@H](C(C)C)C(=O)N5CCC[C@H]5C(=O)N(C)CC(=O)N(C)[C@@H](C(C)C)C(=O)O[C@@H]4C)c3nc-2c(C(=O)N[C@@H]2C(=O)N[C@H](C(C)C)C(=O)N3CCC[C@H]3C(=O)N(C)CC(=O)N(C)[C@@H](C(C)C)C(=O)O[C@@H]2C)c(N)c1=O [Dactinomycin] (100 nM) | 2.05 | 8.92 | 0.24 | 19.8 | 6.79 | 2.69 | 11.3 | 3.22 | 26.6 | 6.05 | 17 | 2.57 | 6.91 | 5.33 | 6.8 | 21.8 | 7.79 | 8.6 | 18.9 |  |  |  |
| COc1cccc2c1C(=O)c1c(O)c3c(c(O)c1C2=O)C[C@@](O)(C(=O)CO)C[C@@H]3O[C@H]1C[C@H](N)[C@H](O)[C@H](C)O1 [Doxorubicin] (100 nM) | 82.7 | 115 | 80.7 | 98.6 | 82.9 | 39 | 92.2 | 71.4 | 115 | 78.3 | 85.4 | 95.9 | 103 | 106 | 117 | 98.7 | 98.7 | 105 | 107 |  |  |  |
| Cc1ccc(F)c(NC(=O)Nc2ccc(-c3cccc4[nH]nc(N)c34)cc2)c1 [Linifanib] (100 nM) | 109 | 104 | 98.7 | 114 | 106 | 75.2 | 112 | 104 | 110 | 103 | 112 | 111 | 100 | 105 | 112 | 103 | 98 | 105 | 102 |  |  |  |
| CC(=O)O[C@]1(C(C)=O)CC[C@H]2[C@@H]3C=C(C)C4=CC(=O)CC[C@]4(C)[C@H]3CC[C@@]21C [Megestrol acetate] |  |  |  |  |  |  |  |  |  |  |  |  |  |  |  |  |  |  |  | 0 | 1.68 | 0 |
| S=c1[nH]cnc2nc[nH]c12 [Mercaptopurine] (1000 nM) | 85 | 80.5 | 79.7 | 88.8 | 75.6 | 108 | 95.2 | 91.8 | 93.7 | 103 | 88.7 | 66.6 | 92.6 | 94.2 | 98.6 | 47.7 | 71.8 | 95.3 | 59.4 |  |  |  |
| Clc1ccc(C(c2ccccc2Cl)C(Cl)Cl)cc1 (stereo not given) [Mitotane] (1000 nM) | 95.7 | 121 | 95.3 | 97.7 | 92 | 98.3 | 94.2 | 98.7 | 97.4 | 100 | 98.2 | 101 | 101 | 91.7 | 92.5 | 101 | 104 | 94.1 | 99.6 |  |  |  |
